Laboratory results as given in publication PMC10901774, “Mirror-image ligand discovery enabled by single-shot fast-flow synthesis of D-proteins” (Nature Communications, 2024).
Like-named read-outs stand apart in the source and are kept apart here. *1 amine or outer side, *2 acyl side, *3 side chain or, on linkers, in order; H or OH if unused. Where a SMILES comes first, the peptide text is derived from it. Bridges are numbered along the chain shown (N, C = ends). [ ]: non-standard residue; d: D form. Phenylene(1,4-NHCOCH2)2 = O=C(C[*:1])Nc1ccc(NC(=O)C[*:2])cc1

Legend:
[1] = molecular target: T1, CHIP23-303 recombinant protein (Homo sapiens, UniProt Q9UNE7); assay: competition fluorescence polarization against FAM-Hsp70 peptide loaded CHIP; assay type: binding; details: SI table 1.27.1, read-out: Measured IC50
T1 construct: 6xHis (N, cleaved yes); TEV cleavage site (N, cleaved yes); made in house; host or cells: E. coli BL21 CodonPlus (pET21b-derived vector)
T1 sequence (Q9UNE7 23-303): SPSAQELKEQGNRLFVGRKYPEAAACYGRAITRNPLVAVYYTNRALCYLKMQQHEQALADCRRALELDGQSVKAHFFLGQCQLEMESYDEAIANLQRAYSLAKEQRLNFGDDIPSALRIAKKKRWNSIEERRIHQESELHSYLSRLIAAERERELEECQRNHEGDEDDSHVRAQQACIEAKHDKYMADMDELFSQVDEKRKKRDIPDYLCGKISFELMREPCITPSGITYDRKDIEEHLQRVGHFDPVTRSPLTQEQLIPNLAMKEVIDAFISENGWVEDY
Source text: Not limited to known D-proteins, we nominated an original target for MIPD screening, CHIP, and identified three macrocyclic D-peptide binders. CHIP is a member of the RING/U-Box family of E3 ligases that direct the ubiquitination of chaperones[66] and their bound client proteins[67],[68] (Fig. 6A). This interaction is driven by a common (I/M)EEVD motif present on the C-terminus of heat shock protein 70 (Hsp70) and Hsp90 family members that is recognized by the TPR domain of CHIP[69] (Fig. 6B). Degradation driven by CHIP is active in a diverse range of cellular processes from monitoring protein quality control[68] to mediating interferon-γ signaling. Masking of the CHIP-TPR domain can in theory modulate these signaling pathways and as a result is actively being pursued[69],[71]. In addition, CHIP belongs to the same protein family as MDM2 (E3 ubiquitin ligases) and has potential therapeutic relevance by being implicated in neurological disease. For these reasons, we hypothesized that this domain would be a valuable target for D-peptide discovery, and successfully isolated the protein in its mirror image form for MIPD screening. […] All three clusters feature conserved terminal residues with carboxylate functionalities (dD3 in CHIP.C1, dD1/dE2 in CHIP.C2, and dD12 in CHIP.C3), consistent with the conserved terminal aspartic acid residues found on CHIP substrates. Hydrophobic residues are retained in the i,i + 4/5 positions relative to the anchoring aspartic acid residue: dW6 in CHIP.C1, dW6 in CHIP.C2, and dA8 in CHIP.C3, presumably for interaction with the hydrophobic TPR groove.
Supplementary Figure 14. D-H109 SPR to Recombinant MDM2. Sensorgrams and steady state affinity plots of D-H109 binding to recombinant MDM2 are shown.
1.27. CHIP Peptide Binders from Phage Display
1.27.1. CHIP Binder Sequences
Cluster ID Sequence Measured IC50
CHIP.C1 H201ǂ Ac-pwedcawfawacyni-NH2 470 nM
CHIP.C2 H203ǂ Ac-phemcywadaycrys-NH2 550 nM
CHIP.C2 H204ǂ Ac-pldlcywaslhcivs-NH2 770 nM
Listed sequences were cyclized between C5 and C12 with N,N'-(1,4-phenylene)bis(2-bromoacetamide) . ǂSequences were selected for co-crystallization with CHIP.
1.27.2. CHIP Binder FP Validation
For the competition FP of CHIP, Helicons at 10 mM in DMSO were serially diluted 1:3 in DMSO for a total of 11 concentrations using a Mosquito LV (SPT Labtech), then diluted 1000-fold in buffer (1 x HBS-P+, Cytiva) in duplicate by the Mosquito LV (SPT Labtech) into a black polystyrene 384-well plate (Corning) (11-point three-fold peptide dilution series with top concentration = 10 μM). […]
HSP70). The plate was incubated and protected from light for 1 hour at room temperature prior to reading. Reads were performed on a CLARIOstar plate reader (BMG Labtech) with excitation at 485 nm, emission at 525 nm, and cutoff at 504 nm. […]

[2] = molecular target: T2, recombinant MDM2 (biotinylated MDM2[25-109]) (Homo sapiens, UniProt Q00987); assay: SPR of macrocyclic D-peptides to recombinant MDM2; assay type: binding; details: SI table 1.26.1, Biacore 8K, 25 °C, 1x HBS-P+ with 1% DMSO, top concentration 5 μM, N = 1, * = listed KD value is beyond tested concentrations, read-out: Measured KD
T2 construct: MDM2 (residues 25-109); made in house
Source text: We identified three binding clusters selective for D-MDM2 with phage display screening (Fig. 4A and SI Section 1.26). In brief, immobilized D-MDM2 from AFPS was screened against an unbiased phage library of 10^8 members displaying macrocyclic α-helical peptides. We sequenced phage particles that remained bound to the targets after washing using next-generation sequencing. Comparisons of sequencing reads to a spiked-in internal reference allowed for a semi-quantitative read-out of binding affinity as a function of protein bait concentration. […] Consistent with previously described α-helical peptide binders to MDM2[64],[65], all three clusters contain anchoring N-terminal tryptophan residues (dW2 in MDM2.C1, dW1 in MDM2.C2, and dW1 in MDM2.C3), and show conserved hydrophobic residues on the same α-helical face as the tryptophan residue (i,i + 4/5 and i,i + 8/9 relative to dW on each cluster). To validate the specificity of each binding cluster, we synthesized representative binding peptides in the D-form (Fig. 4B, D-H101 from MDM2.C1, D-H102 from MDM2.C2, and D-H103 from MDM2.C3) and measured their affinity to recombinant MDM2 with SPR. We observed binding constants of 5.5 μM, 2.4 μM, and 0.88 μM, respectively (Fig. 4C and Supplementary Figs. 6–8).
1.24. YAP1-WW1-WW2 Protein Expression […]
Cluster ID Sequence Measured KD […]

[3] = 400 nM CHIP23-303, 20 nM probe 5FAM-bAla-[…], 1 hour room temperature, duplicate

T2 sequence (Q00987 25-109): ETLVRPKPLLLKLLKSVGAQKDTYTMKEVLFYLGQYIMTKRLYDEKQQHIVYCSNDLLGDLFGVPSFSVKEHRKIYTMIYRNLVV

SMILES	IC50 [1, 3] [nM]	further results
CC[C@@H](C)[C@@H](NC(=O)[C@@H](CC(N)=O)NC(=O)[C@@H](Cc1ccc(O)cc1)NC(=O)[C@H]1CSCC(=O)Nc2ccc(cc2)NC(=O)CSC[C@@H](NC(=O)[C@@H](CC(=O)O)NC(=O)[C@@H](CCC(=O)O)NC(=O)[C@@H](Cc2c[nH]c3ccccc23)NC(=O)[C@H]2CCCN2C(C)=O)C(=O)N[C@H](C)C(=O)N[C@H](Cc2c[nH]c3ccccc23)C(=O)N[C@H](Cc2ccccc2)C(=O)N[C@H](C)C(=O)N[C@H](Cc2c[nH]c3ccccc23)C(=O)N[C@H](C)C(=O)N1)C(N)=O [D-H201] (Ac-[dP][dW][dE][dD][dC][dA][dW][dF][dA][dW][dA][dC][dY][dN][dI]-NH2; linker 5-12 via Phenylene(1,4-NHCOCH2)2)	470	–
CC(=O)N1CCC[C@@H]1C(=O)N[C@H](Cc1c[nH]c2ccccc12)C(=O)N[C@H](Cc1c[nH]c2ccccc12)C(=O)N[C@H](CCC(=O)O)C(=O)N[C@@H]1CSCC(=O)Nc2ccc(cc2)NC(=O)CSC[C@H](C(=O)N[C@H](CC(=O)O)C(=O)N[C@H](Cc2ccccc2)C(=O)N[C@H](CCCNC(=N)N)C(N)=O)NC(=O)[C@@H](CC(=O)O)NC(=O)[C@@H](CC(=O)O)NC(=O)[C@@H](C)NC(=O)[C@@H](CCC(N)=O)NC(=O)[C@@H](CO)NC(=O)[C@@H](CC(C)C)NC1=O [D-H202] (Ac-[dP][dW][dW][dE][dC][dL][dS][dQ][dA][dD][dD][dC][dD][dF][dR]-NH2; linker 5-12 via Phenylene(1,4-NHCOCH2)2)	–	IC50 ([1]; unit as printed in the cell of H202, same competition FP): 1230 nM
CSCC[C@@H](NC(=O)[C@@H](CCC(=O)O)NC(=O)[C@@H](Cc1c[nH]cn1)NC(=O)[C@H]1CCCN1C(C)=O)C(=O)N[C@@H]1CSCC(=O)Nc2ccc(cc2)NC(=O)CSC[C@H](C(=O)N[C@H](CCCNC(=N)N)C(=O)N[C@H](Cc2ccc(O)cc2)C(=O)N[C@H](CO)C(N)=O)NC(=O)[C@@H](Cc2ccc(O)cc2)NC(=O)[C@@H](C)NC(=O)[C@@H](CC(=O)O)NC(=O)[C@@H](C)NC(=O)[C@@H](Cc2c[nH]c3ccccc23)NC(=O)[C@@H](Cc2ccc(O)cc2)NC1=O [D-H203] (Ac-[dP][dH][dE][dM][dC][dY][dW][dA][dD][dA][dY][dC][dR][dY][dS]-NH2; linker 5-12 via Phenylene(1,4-NHCOCH2)2)	550	–
CC(=O)N[C@H](CC(=O)O)C(=O)N1CCC[C@@H]1C(=O)N[C@H](C)C(=O)N[C@H](CO)C(=O)N[C@H](CCCNC(=N)N)C(=O)N[C@H](CC(N)=O)C(=O)N[C@@H]1CSCC(=O)Nc2ccc(cc2)NC(=O)CSC[C@H](C(=O)N[C@H](CCC(=O)O)C(=O)N[C@H](Cc2ccc(O)cc2)C(=O)N[C@H](Cc2c[nH]c3ccccc23)C(N)=O)NC(=O)[C@@H](CC(C)C)NC(=O)[C@@H](Cc2c[nH]cn2)NC(=O)[C@@H](C)NC(=O)[C@@H](C)NC(=O)[C@@H](Cc2c[nH]c3ccccc23)NC(=O)[C@@H](CCC(N)=O)NC1=O [H107] (Ac-[dD][dP][dA][dS][dR][dN][dC][dQ][dW][dA][dA][dH][dL][dC][dE][dY][dW]-NH2; linker 7-14 via Phenylene(1,4-NHCOCH2)2)	–	Kd [2]: 1100 nM
CC[C@@H](C)[C@@H](NC(=O)[C@H]1CSCC(=O)Nc2ccc(cc2)NC(=O)CSC[C@@H](NC(=O)[C@@H](CC(C)C)NC(=O)[C@@H](CC(=O)O)NC(=O)[C@@H](CC(C)C)NC(=O)[C@H]2CCCN2C(C)=O)C(=O)N[C@H](Cc2ccc(O)cc2)C(=O)N[C@H](Cc2c[nH]c3ccccc23)C(=O)N[C@H](C)C(=O)N[C@H](CO)C(=O)N[C@H](CC(C)C)C(=O)N[C@H](Cc2c[nH]cn2)C(=O)N1)C(=O)N[C@@H](C(=O)N[C@H](CO)C(N)=O)C(C)C [H204] (Ac-[dP][dL][dD][dL][dC][dY][dW][dA][dS][dL][dH][dC][dI][dV][dS]-NH2; linker 5-12 via Phenylene(1,4-NHCOCH2)2)	770	–
